Data as given in patent US9657022B2, “7-OXO-1,6-diazabicyclo[3.2.1]octane derivatives and their use as antibacterial agents” (WOCKHARDT LIMITED, priority 2014, dated 2017).
Converted amounts (≈) assume the structure as drawn.

Assays:
[1] = target: T1, Class C beta-lactamase P99 (E. cloacae J137) (Enterobacter cloacae, UniProt P05364); test: Beta-lactamase enzyme inhibition (Nitrocefin, crude enzyme); format: biochemical
T1 construct: preincubated mixture of crude enzyme and the compounds; endogenous in cells; host or cells: E. cloacae J137
T1 sequence (P05364 21-381): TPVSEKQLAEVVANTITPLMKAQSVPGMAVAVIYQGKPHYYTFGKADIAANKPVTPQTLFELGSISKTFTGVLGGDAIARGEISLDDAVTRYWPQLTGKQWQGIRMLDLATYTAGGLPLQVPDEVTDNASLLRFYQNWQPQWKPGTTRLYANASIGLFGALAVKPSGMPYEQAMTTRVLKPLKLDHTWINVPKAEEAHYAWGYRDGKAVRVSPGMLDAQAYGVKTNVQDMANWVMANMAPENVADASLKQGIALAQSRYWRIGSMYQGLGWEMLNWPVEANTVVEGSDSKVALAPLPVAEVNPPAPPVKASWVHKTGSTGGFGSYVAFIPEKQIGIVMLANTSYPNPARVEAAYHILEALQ
Experimental: (§1) Absorbance was measured at 485 nm by UV-spectrophotometer. The IC50 was calculated by plotting absorbance against concentration through Sigmoidal dose response curve using Graph Pad software.

[2] = target: Class D beta-lactamase OXA 26 (A. baumannii NCTC 13303) (Acinetobacter baumannii, UniProt Q9F0V2); test: as above; format: biochemical; details: A. baumannii NCTC 13303 (OXA 26), read-out: Beta-lactamase enzyme inhibition IC50
Class D beta-lactamase OXA 26 (A. baumannii NCTC 13303), sequence (Q9F0V2 entry or part of it): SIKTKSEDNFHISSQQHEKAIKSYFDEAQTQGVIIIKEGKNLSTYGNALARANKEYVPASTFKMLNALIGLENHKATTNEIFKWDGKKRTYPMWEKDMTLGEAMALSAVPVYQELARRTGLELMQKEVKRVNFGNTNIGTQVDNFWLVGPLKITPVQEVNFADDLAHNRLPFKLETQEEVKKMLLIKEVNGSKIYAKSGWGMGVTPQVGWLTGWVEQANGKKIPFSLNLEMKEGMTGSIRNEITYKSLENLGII
Experimental: as §1

E. coli NCTC 13351 = test: Antibacterial activity (MIC), agar dilution per CLSI; format: cell-based; details: Escherichia coli, NCTC13351
Experimental: (§2) The biological activity of representative compounds according to the invention against various bacterial strains was investigated. In a typical study, overnight grown bacterial cultures were diluted appropriately and inoculated on the agar media containing doubling dilutions of the test compounds. Observations for growth or no growth was performed after 16-20 hours of incubation at 35±2° C. in the ambient air. The overall procedure was performed as per Clinical and Laboratory Standards Institute (CLSI) recommendations, (Clinical and Laboratory Standards Institute (CLSI), Performance Standards for Antimicrobial Susceptibility Testing, 20th Informational Supplement, M07-A9, Volume 32, No. 2, 2012). Molten Mueller Hinton Agar (BD, USA) containing serial dilutions of each antibacterial agent were poured on to the plates and allowed to solidify. Appropriate suspensions from the freshly grown cultures were prepared in normal saline so that about 10^4 CFU/spot of the organism was delivered on to the drug containing agar plates using automated multipoint inoculator (Mast, UK). The plates were incubated in Biochemical oxygen demand (BOD) incubator at 37° C. for 18 hours and then examined for growth.
(§3) Table 3 details the antibacterial activity of representative compound of Formula (I), (2S,5R)-sulfuric acid mono-{2-[N′-(2-(S)-pyrrolidin-2-yl-acetyl)-hydrazinocarbonyl]-7-oxo-1,6-diaza-bicyclo[3.2.1]oct-6-yl}ester (Compound of Example 1), against various Multi Drug Resistant (MDR) Gram-negative bacterial strains. The activities are expressed as Minimum Inhibitory Concentrations (MICs) (mcg/ml).

E. cloacae M 20 = test: as above; format: cell-based; details: Enterobacter cloacae, M20
Experimental: as §2, §3

K. pneumoniae B 88 = test: as above; format: cell-based; details: Klebsiella pneumoniae, B88
Experimental: as §2, §3

K. pneumoniae S 21 = test: as above; format: cell-based; details: Klebsiella pneumoniae, S21
Experimental: as §2, §3

C. frundaii 58 MP = test: as above; format: cell-based
Experimental: as §2, §3

With `O=C(C[C@@H]1CCCN1)NNC(=O)[C@@H]1CC[C@@H]2CN1C(=O)N2OS(=O)(=O)O` [Example 1, (2S,5R)-Sulfuric acid mono-{2-[N′-(2-(S)-pyrrolidin-2-yl-acetyl)-hydrazinocarbonyl]-7-oxo-1,6-diaza-bicyclo[3.2.1]oct-6-yl}ester] the IC50 [1] was 0.027 µM, the IC50 [2] was 4.77 µM and the MIC (E. coli NCTC 13351) was 0.5 mg/L (≈ 1.28 µM). The MIC (E. cloacae M 20) was 0.5 mg/L (≈ 1.28 µM), the MIC (K. pneumoniae B 88) was 0.5 mg/L (≈ 1.28 µM) and the MIC (K. pneumoniae S 21) was 2 mg/L (≈ 5.11 µM). For the same compound, the MIC (C. frundaii 58 MP) was 0.5 mg/L (≈ 1.28 µM).
